# Test results taken from ChEMBL document CHEMBL3044824, “Synthesis and Acaricidal Activity of 1-Arylmethyl-2-arylimidazolidines” (2001).
# Experiments:
# Assay type in all cases: functional
# [1] = system: Tetranychus urticae; test: Acaricidal activity against Tetranychus urticae (two-spotted spider mite) in second leaf stage of Phaseolus vulgaris var. Serena assessed as mortality at 500 ppm after 7 days
# [2] = system: Tetranychus urticae; test: Acaricidal activity against Tetranychus urticae (two-spotted spider mite) in second leaf stage of Phaseolus vulgaris var. Serena assessed as mortality at 200 ppm after 7 days
# [3] = system: Tetranychus urticae; test: Acaricidal activity against Tetranychus urticae (two-spotted spider mite) in second leaf stage of Phaseolus vulgaris var. Serena assessed as mortality at 100 ppm after 7 days
# [4] = system: Tetranychus urticae; test: Acaricidal activity against Tetranychus urticae (two-spotted spider mite) in second leaf stage of Phaseolus vulgaris var. Serena assessed as mortality at 50 ppm after 7 days
SMILES,Activity [1] [%],Activity [2] [%],Activity [3] [%],Activity [4] [%]
c1ccc(CN2CCN=C2c2cccnc2)cc1,25,,,
Clc1ccc(CN2CCN=C2c2cccnc2)cn1,50,25,,
c1ccc(C2=NCCN2c2ccccc2)cc1,<24,,,
c1ccc(CCN2CCN=C2c2ccccc2)cc1,25,,,
c1ccc(CC2=NCCN2Cc2ccccc2)cc1,<24,,,
Clc1ccc(CC2=NCCN2Cc2ccc(Cl)cc2)cc1,<24,,,
Clc1ccc(CN2CCCN=C2c2ccccc2)cc1,50,25,,
CC1(C)CN=C(c2ccccc2)N(Cc2ccc(Cl)cc2)C1,>80,50,25,
Clc1ccc(CN2CCN=C2c2ccccc2)c(Cl)c1,25,,,
Clc1cccc(Cl)c1CN1CCN=C1c1ccccc1,>80,25,,
Clc1ccccc1C1=NCCN1Cc1ccccc1,>80,50,25,
Clc1cccc(C2=NCCN2Cc2ccccc2)c1,<24,,,
Clc1ccc(C2=NCCN2Cc2ccccc2)cc1,<24,,,
Fc1cccc(F)c1C1=NCCN1Cc1ccccc1,>80,>80,>80,>80
Fc1cccc(F)c1C1=NCCN1Cc1ccc(Cl)cc1,>80,>80,>80,25
c1ccc(C2=NCCN2Cc2cccnc2)cc1,>80,50,25,
c1ccc(C2=NCCN2Cc2ccncc2)cc1,>80,50,>80,
Clc1ccc(CN2CCN=C2c2ccccc2)cn1,50,<24,,
Clc1ccc(CN2CCN=C2c2cccnc2)cc1,>80,>80,50,25
c1cncc(CN2CCN=C2c2cccnc2)c1,>80,50,25,
Clc1ccccc1CN1CCN=C1c1ccccc1,>80,50,25,
Clc1cccc(CN2CCN=C2c2ccccc2)c1,>80,25,,
Clc1ccc(CN2CCN=C2c2ccccc2)cc1,>80,>80,>80,>80
Cc1ccc(CN2CCN=C2c2ccccc2)cc1,<24,,,
COc1ccc(CN2CCN=C2c2ccccc2)cc1,<24,,,
CC(C)(C)c1ccc(CN2CCN=C2c2ccccc2)cc1,>80,50,25,
c1ccc(C2=NCCN2Cc2ccc(-c3ccccc3)cc2)cc1,>80,>80,50,25
c1ccc(CN2CCN=C2c2ccccc2)cc1,50,25,,
